Measurements: patent US4585589A, “Water-soluble alkanoyloxy and alkoxycarbonyloxy rifampicin derivatives, process for its preparation, intermediates, and its pharmaceutical composition as antibacterials” (Gruppo Lepetit S.p.A., priority 1983, dated 1986)
≈ marks a conversion by molar mass, not a printed value. Read-outs that look alike come from different tables or passages of the source.

Assays:
[1] = solubility in water containing 2% ascorbic acid (solution A) and in water containing 2% ascorbic acid and 10% propylene glycol (solution B), with pH of the resulting solutions; type: physicochemical
Method: The compounds of the present invention show a marked solubility in water as well as in mixtures of water with other pharmaceutically acceptable solvents miscible with water. In particular, the solubility of the compounds of the present invention in comparison with rifampicin was assayed in water containing 2% ascorbic acid (solution A) and in water containing 2% ascorbic acid and 10% propylene glycol (solution B) and the pH of the resulting solutions was recorded.

[2] = system: Staphylococcus aureus Tour; assay: antibacterial activity in mice infected with Staphylococcus aureus Tour; type: in vivo; details: sc, values in parentheses as printed, read-out: ED50 against S. aureus Tour
Method: As expected, this slight delay in hydrolysis in vivo reflects in a median effective dose (ED50) for the compounds of formula I somewhat higher than for rifampicin. In particular the antibacterial activity of the compounds of the present invention was tested in mice infected with Staphylococcus aureus Tour.

[3] = cited from earlier work
[4] = solution A: water containing 2% ascorbic acid
[5] = water with 2% ascorbic acid, solution A: water containing 2% ascorbic acid, read-out: solubility

| Compound | pH of the resulting solution [1, 4] | solubility [1, 5] | ED50 [2] | other results |
| --- | --- | --- | --- | --- |
| CO[C@H]1/C=C/O[C@@]2(C)Oc3c(C)c(OC(C)=O)c4c(O)c(c(/C=N/N5CCN(C)CC5)c(O)c4c3C2=O)NC(=O)/C(C)=C\C=C\[C@H](C)[C@H](O)[C@@H](C)[C@@H](O)[C@@H](C)[C@H](OC(C)=O)[C@@H]1C [Example 4, 3-[[(4-methyl-1-piperazinyl)imino]methyl]rifamycin 8-acetate] | 4.0 | 100 mg/mL (≈ 116 mM) | 0.35 mg/kg | solubility ([1]; organic solvent or mixture, solution B: water containing 2% ascorbic acid and 10% propylene glycol, read-out: solubility): 150 mg/mL (≈ 173 mM); pH of the resulting solution ([1]; solution B: water containing 2% ascorbic acid and 10% propylene glycol): 4.2 |
| CCC(=O)Oc1c(C)c2c3c4c(O)c(/C=N/N5CCN(C)CC5)c(c(O)c14)NC(=O)/C(C)=C\C=C\[C@H](C)[C@H](O)[C@@H](C)[C@@H](O)[C@@H](C)[C@H](OC(C)=O)[C@H](C)[C@@H](OC)/C=C/O[C@@](C)(O2)C3=O [Example 5, 3-[[(4-methyl-1-piperazinyl)imino]methyl]rifamycin 8-pro-panoate] |  |  | 1.2 mg/kg |  |
| CCOC(=O)Oc1c(C)c2c3c4c(O)c(/C=N/N5CCN(C)CC5)c(c(O)c14)NC(=O)/C(C)=C\C=C\[C@H](C)[C@H](O)[C@@H](C)[C@@H](O)[C@@H](C)[C@H](OC(C)=O)[C@H](C)[C@@H](OC)/C=C/O[C@@](C)(O2)C3=O [Example 6, 3-[[(4-methyl-1-piperazinyl)imino]methyl]rifamycin 8-ethylcarbonate] |  |  | 0.76 mg/kg |  |
| CO[C@H]1/C=C/O[C@@]2(C)Oc3c(C)c(OC(C)=O)c4c(O)c(c(/C=N/N5CCN(C)CC5)c(OC(C)=O)c4c3C2=O)NC(=O)/C(C)=C\C=C\[C@H](C)[C@H](O)[C@@H](C)[C@@H](O)[C@@H](C)[C@H](OC(C)=O)[C@@H]1C [Example 7] | 4.5 | > 300 mg/mL | 1.5 mg/kg |  |
| CO[C@H]1/C=C/O[C@@]2(C)Oc3c(C)c(O)c4c(O)c(c(/C=N/N5CCN(C)CC5)c(O)c4c3C2=O)NC(=O)/C(C)=C\C=C\[C@H](C)[C@H](O)[C@@H](C)[C@@H](O)[C@@H](C)[C@H](OC(C)=O)[C@@H]1C [rifampicin, 3-[[(4-methyl-1-piperazinyl)imino]methyl]rifamycin] |  |  |  | pH of the resulting solution ([1]; in either solution (A or B)): 3.5-3.6; solubility ([1]; water with 2% ascorbic acid): < 50 mg/mL; solubility in various aqueous media [3]: lower than 20 mg/ml |
